Source: patent US7943770B2, “Fused quinoline derivative and use thereof” (Takeda Pharmaceutical Company Limited, priority 2004, dated 2011)

Columns and labels:
[1] = target: T1, hNK2 receptor (Homo sapiens, UniProt P21452); assay: Antagonistic activity determined by intracellular calcium concentration (FLIPR) using Neurokinin A and hNK2 receptor-expressing CHO cell; assay type: cell-based; conditions: increase in intracellular calcium due to Neurokinin A, hNK2 receptor-expressing CHO cells
T1 construct: host or cells: CHO cells
T1 sequence (P21452 1-398): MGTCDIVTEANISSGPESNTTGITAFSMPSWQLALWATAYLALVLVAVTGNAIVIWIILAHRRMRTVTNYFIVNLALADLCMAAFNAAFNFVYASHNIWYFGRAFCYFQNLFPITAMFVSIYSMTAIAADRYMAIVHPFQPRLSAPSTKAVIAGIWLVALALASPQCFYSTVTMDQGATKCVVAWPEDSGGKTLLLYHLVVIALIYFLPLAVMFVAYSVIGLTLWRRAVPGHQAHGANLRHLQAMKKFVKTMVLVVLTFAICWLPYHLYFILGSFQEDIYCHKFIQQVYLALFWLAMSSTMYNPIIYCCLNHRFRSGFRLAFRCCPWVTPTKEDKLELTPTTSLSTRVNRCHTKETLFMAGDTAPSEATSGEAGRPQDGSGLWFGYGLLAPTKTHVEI
Procedure: hNK2 receptor-expressing CHO cells were seeded on a 96 well plate at 3×10^4 cell/well and cultured for 24 hrs. Then the medium was aspirated and 20 mM HEPES (pH 7.4)—HBSS buffer (50 μL) was added. Thereto was added prepared 1× Reagent buffer (50 μL, FLIPR Calcium Assay Kit: Molecular Devices Corporation, Japan) and the mixture was reacted at 37° C. for 1 hr. A test compound diluted with 20 mM HEPES (pH 7.4)—HBSS buffer (50 μL, containing 0.4% dimethyl sulfoxide) was added to examine antagonistic activity of the test compound. Thereafter, 20 nM Neurokinin A solution (50 μL) was added, and change in the intracellular calcium concentration were measured by FLIPR (Molecular Devices Corporation, Japan).

[2] = target: T1, hNK2 receptor; assay: Radio-ligand ([125I]-NKA) receptor binding inhibitory activity using membrane fraction of hNK2 receptor-expressing CHO cell; conditions: membrane fraction of hNK2 receptor-expressing CHO cells, 25° C., 30 min
Outline: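 Inhibition of [125I]-NKA binding ([…] solution added) measured after 30 min at 25 °C using hNK2-CHO membrane fraction (20 μg/mL suspension) in pH 7.4 Tris buffer containing MnCl2, BSA and protease inhibitors. Filter-bound counts read; activity calculated as fraction of specific binding, non-specific defined with unlabeled NKA.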

Row | Compound | Assay of Antagonistic activity Inhibitory rate (%) ([1]; test compound 1 μM) | Assay of Antagonistic activity Inhibitory rate (%) ([1]; test compound 10 μM) | IC50 [2] [nM]
1 | O=C(N[C@@H]1CCCC[C@@H]1C(=O)N1CC[C@@H]2[C@H](c3ccccc3)Nc3ccccc3[C@@H]21)c1ccccc1 [Compound of Example 1] | 45 | 97 | –
2 | CCCCCCNC(=O)N[C@@H]1CCCC[C@@H]1C(=O)N1CC[C@@H]2[C@H](c3ccccc3)Nc3ccccc3[C@@H]21 [Example 154, N-Hexyl-N′-((1R,2S)-2-{[(3aR,4R,9bR)-4-phenyl-2,3,3a,4,5,9b-hexahydro-1H-pyrrolo[3,2-c]quinolin-1-yl]carbonyl}cyclohexyl)urea] | – | – | < 1
3 | CCCCNC(=O)N[C@@H]1CCCC[C@@H]1C(=O)N1CC[C@@H]2[C@H](c3ccsc3)Nc3ccccc3[C@@H]21 [Example 188, N-Butyl-N′-((1R,2S)-2-{[(3aR,4R,9bR)-4-(3-thienyl)-2,3,3a,4,5,9b-hexahydro-1H-pyrrolo[3,2-c]quinolin-1-yl]carbonyl}cyclohexyl)urea] | – | – | < 1
4 | O=C(NC1(CC(=O)N2CC[C@@H]3[C@H](c4ccccc4)Nc4ccccc4[C@@H]32)CCCCC1)c1ccccc1 (relative stereo) [Example 312, N-(1-{2-oxo-2-[(3aR*,4R*,9bR*)-4-phenyl-2,3,3a,4,5,9b-hexahydro-1H-pyrrolo[3,2-c]quinolin-1-yl]ethyl}cyclohexyl)benzamide] | – | – | < 10
5 | COC[C@@H]1Nc2ccccc2[C@H]2[C@@H]1CCN2C(=O)[C@H]1CCCC[C@H]1NC(=O)c1ccc(OC(F)F)cc1 [Example 234, 4-(Difluoromethoxy)-N-((1R,2S)-2-{[(3aR,4R,9bR)-4-(methoxymethyl)-2,3,3a,4,5,9b-hexahydro-1H-pyrrolo[3,2-c]quinolin-1-yl]carbonyl}cyclohexyl)benzamide] | – | – | < 1
6 | COC[C@@H]1Nc2ccccc2[C@H]2[C@@H]1CCN2C(=O)[C@H]1CCCC[C@H]1NC(=O)c1ccccc1C#N [Example 232, 2-Cyano-N-((1R,2S)-2-{[(3aR,4R,9bR)-4-(methoxymethyl)-2,3,3a,4,5,9b-hexahydro-1H-pyrrolo[3,2-c]quinolin-1-yl]carbonyl}cyclohexyl)benzamide] | – | – | < 10
7 | CC(C)C[C@@H]1Nc2ccccc2[C@H]2[C@@H]1CCN2C(=O)[C@H]1CCCC[C@H]1NC(=O)c1ccccc1 [Example 66, N-((1R,2S)-2-{[(3aR,4S,9bR)-4-Isobutyl-2,3,3a,4,5,9b-hexahydro-1H-pyrrolo[3,2-c]quinolin-1-yl]carbonyl}cyclohexyl)benzamide] | – | – | < 10
8 | COC[C@@H]1Nc2ccccc2[C@H]2[C@@H]1CCN2C(=O)[C@H]1CCCC[C@H]1NC(=O)c1ccc2c(c1)OCCN2C [Example 269, N-((1R,2S)-2-{[(3aR,4R,9bR)-4-(Methoxymethyl)-2,3,3a,4,5,9b-hexahydro-1H-pyrrolo[3,2-c]quinolin-1-yl]carbonyl}cyclohexyl)-4-methyl-3,4-dihydro-2H-1,4-benzoxazin-7-carboxamide] | – | – | < 1
9 | O=C(N[C@@H]1CCCC[C@@H]1C(=O)N1CC[C@@H]2[C@H](c3ccccc3)Nc3ccccc3[C@@H]21)c1cccs1 [Example 89, N-((1R,2S)-2-{[(3aR,4R,9bR)-4-Phenyl-2,3,3a,4,5,9b-hexahydro-1H-pyrrolo[3,2-c]quinolin-1-yl]carbonyl}cyclohexyl)thiophene-2-carboxamide] | – | – | < 10
10 | C[C@]12CCN(C(=O)[C@H]3CCCC[C@H]3NC(=O)c3ccccc3)[C@H]1c1ccccc1N[C@H]2c1ccsc1 [Example 193, N-((1R,2S)-2-{[(3aR,4R,9bR)-3a-Methyl-4-(3-thienyl)-2,3,3a,4,5,9b-hexahydro-1H-pyrrolo[3,2-c]quinolin-1-yl]carbonyl}cyclohexyl)benzamide] | – | – | < 1
11 | COc1cccc(C(=O)N[C@@H]2CCCC[C@@H]2C(=O)N2CC[C@@H]3[C@H](c4ccccc4)Nc4ccccc4[C@@H]32)c1 [Example 95, 3-Methoxy-N-((1R,2S)-2-{[(3aR,4R,9bR)-4-phenyl-2,3,3a,4,5,9b-hexahydro-1H-pyrrolo[3,2-c]quinolin-1-yl]carbonyl}cyclohexyl)benzamide] | – | – | < 10
12 | O=C(CCc1ccccc1)N[C@@H]1CCCC[C@@H]1C(=O)N1CC[C@@H]2[C@H](c3ccccc3)Nc3ccccc3[C@@H]21 [Example 103, 3-Phenyl-N-((1R,2S)-2-{[(3aR,4R,9bR)-4-phenyl-2,3,3a,4,5,9b-hexahydro-1H-pyrrolo[3,2-c]quinolin-1-yl]carbonyl}cyclohexyl)propanamide] | – | – | < 1
13 | COC(=O)c1ccc(C(=O)N[C@@H]2CCCC[C@@H]2C(=O)N2CC[C@@H]3[C@H](c4ccccc4)Nc4ccccc4[C@@H]32)cc1 [Example 100, Methyl 4-{[((1R,2S)-2-{[(3aR,4R,9bR)-4-phenyl-2,3,3a,4,5,9b-hexahydro-1H-pyrrolo[3,2-c]quinolin-1-yl]carbonyl}cyclohexyl)amino]carbonyl}benzoate] | – | – | < 10
14 | O=C(Nc1ccc(F)cc1)N[C@@H]1CCCC[C@@H]1C(=O)N1CC[C@@H]2[C@H](c3ncc[nH]3)Nc3ccccc3[C@@H]21 [Example 298, N-(4-Fluorophenyl)-N′-((1R,2S)-2-{[(3aR,4R,9bR)-4-(1H-imidazol-2-yl)-2,3,3a,4,5,9b-hexahydro-1H-pyrrolo[3,2-c]quinolin-1-yl]carbonyl}cyclohexyl)urea] | – | – | < 1
15 | COC[C@@H]1Nc2ccccc2[C@H]2[C@@H]1CCN2C(=O)[C@H]1CCCC[C@H]1NC(=O)Nc1ccc(N2CCOCC2)nc1 [Example 289, N-((1R,2S)-2-{[(3aR,4R,9bR)-4-(Methoxymethyl)-2,3,3a,4,5,9b-hexahydro-1H-pyrrolo[3,2-c]quinolin-1-yl]carbonyl}cyclohexyl)-N′-(6-morpholin-4-ylpyridin-3-yl)urea] | – | – | < 10
16 | O=C(NCC[C@@H]1Nc2ccccc2[C@H]2[C@@H]1CCN2C(=O)[C@H]1CCCC[C@H]1NC(=O)c1ccccc1)OCc1ccccc1 [Example 68, Benzyl 2-((3aR,4S,9bR)-1-{[(1S,2R)-2-(benzoylamino)cyclohexyl]carbonyl}-2,3,3a,4,5,9b-hexahydro-1H-pyrrolo[3,2-c]quinolin-4-yl)ethylcarbate] | – | – | < 10
17 | CCC[C@@H]1Nc2ccccc2[C@H]2[C@@H]1CCN2C(=O)[C@H]1CCCC[C@H]1NC(=O)Nc1ccc2c(c1)OCO2 [Example 200, N-1,3-Benzodioxol-5-yl-N′-((1R,2S)-2-{[(3aR,4S,9bR)-4-propyl-2,3,3a,4,5,9b-hexahydro-1H-pyrrolo[3,2-c]quinolin-1-yl]carbonyl}cyclohexyl)urea] | – | – | < 1
18 | COC[C@@H]1Nc2ccccc2[C@H]2[C@@H]1CCN2C(=O)[C@H]1CCCC[C@H]1NC(=O)/C=C/c1ccc(C(F)(F)F)cc1 [Example 209] | – | – | < 1
19 | O=C(N[C@@H]1CCCC[C@@H]1C(=O)N1CC[C@@H]2[C@H](c3ncc[nH]3)Nc3ccccc3[C@@H]21)c1ccccc1 (relative stereo) [Example 54, N-((1R,2S)-2-{[(3aR*,4R*,9bR*)-4-(1H-Imidazol-2-yl)-2,3,3a,4,5,9b-hexahydro-1H-pyrrolo[3,2-c]quinolin-1-yl]carbonyl}cyclohexyl)benzamide] | – | – | < 1
20 | O=C(N[C@@H]1CCCC[C@@H]1C(=O)N1CC[C@@H]2[C@H](C3CC3)Nc3ccccc3[C@@H]21)c1ccc(F)cc1 [Example 182, N-((1R,2S)-2-{[(3aR,4S,9bR)-4-Cyclopropyl-2,3,3a,4,5,9b-hexahydro-1H-pyrrolo[3,2-c]quinolin-1-yl]carbonyl}cyclohexyl)-4-fluorobenzamide] | – | – | < 1
